In patent publication US7456294B2, “Hairpin polyamide” (Japan Science and Technology Agency, priority 2002, dated 2008):
Entries after “also recorded” stand apart in the source; their conditions may differ.

Assays:
long chain DNA (pUC-II) = assay: Long chain DNA (pUC-II) alkylation, 24 hours, sequence gel electrophoresis; assay type: biochemical; conditions: nM concentrations, 23° C.
Protocol: For the purpose of comparing the hairpin polyamides 14, 15 and 16, the DNA alkylation reaction employing a long chain DNA (pUC-II) was conducted.
With this regard, the inventors considered that this problem can be solved by replacing the Du86 with CBI: 1,2,9,9a-tetrahydrocyclopropa[c]benz[e]indole-4-one (22), the method for synthesizing which had already been reported by Boger et al. (J. Org. Chem. 1992, 57, 2873; J. Org. Chem. 1995, 60, 1271 and the like). The benefit of using CBI includes the ability of using commercially available 1,3-dihydroxynaphthalene as a starting material and the ability of providing both enantiomers by an optical resolution. Accordingly, the inventors newly synthesized Compound 23 by replacing the Du86 part of Compound 16 with CBI. Then the inventors evaluated the DNA-alkylating ability using a long chain DNA (pUC-II).
A DNA fragment (pUC-II) was synthesized by a PCR method using pUC 18 as a template together with a 5′-texas red-labeled 21 base pair primer: 5′-[…]-3′ (pUC 18 reverse, 1861-1881) and 18 base pair primer: 5′-TGTAAAACGACGGCCAGT-3′ (pUC18 forward, 378-395). The resultant DNA fragments were purified by filtration through a Suprec-02, and then examined for the UV absorption to determine the respective concentrations.
(§1) To 10 μl in total of 5 mM sodium phosphate buffer (pH7.0), a standard reaction solution containing 10 nM of the DNA fragment (pUC-II) whose 5′-terminal had been labeled with the texas red, 10% (v/v) DMF and an agent at the concentration indicated in FIG. 4 was added in a microcentrifugation tube (Eppendorf) and allowed to stand for 24 hours at 23° C.
A bovine thymus DNA (1 mM, 1 μL) was added for quenching, and the mixture was shaken for 5 minutes at 90° C. The DNA obtained by centrifugation under reduced pressure was combined with 8 μl of a loading color (solution of *FUGENE* Red in DMF) and dissolved, and then shaken for 20 minutes at 94° C. […]

long chain DNA (pUC-I′) = assay: Long chain DNA (pUC-I′) alkylation, 24 hours, sequence gel electrophoresis; assay type: biochemical; conditions: for sequence-specific alkylation of long chain DNA: 100 nM to 12.5 nM, 23° C.
Protocol: The reaction of the hairpin polyamides 1 and 12 to 14 with a DNA was investigated using a long chain DNA (pUC-I′). The alkylation reaction was continued for 24 hours and a sequence gel electrophoresis was conducted for the analysis.
On the other hand, the alkylation of ImPyPy-γ-ImPyPyDu86 (12) was not observed at 100 nM to 12.5 nM (lanes 5 to 8). […] In the description made above or below, a -γ- means a γ-aminobutyric acid residue.
A DNA fragment (pUC-I′) was synthesized by a PCR method using pUC 18 as a template together with a 5′-texas red-labeled 20 base pair primer: 5′-[…]-3′ (pUC 18 forward, 780-799) and 20 base pair primer: 5′-[…]-3′ (pUC18 reverse, 1459-1478). The resultant DNA fragments were purified by filtration through a Suprec-02, and then examined for the UV absorption to determine the respective concentrations.
as §1, with “fragment (pUC-I′)” for “fragment (pUC-II)”, “FIG. 1” for “FIG. 4”
(§2) A bovine thymus DNA (1 mM, 1 μL) was added for quenching, and the mixture was shaken for 5 minutes at 90° C. The DNA obtained by centrifugation under reduced pressure was combined with 8 μl of a loading color (solution of *FUGENE* Red in DMF) and dissolved, and then shaken for 20 minutes at 94° C. Immediately after this, the mixture was cooled rapidly to 0° C., and a 2 μl aliquot was subjected to an electrophoresis on a 6% denature polyacrylamide gel using a HITACHI 5500-S DNA sequencer system.

[1] = test system: DNA oligomers 5′-CAAGTCAGAG/5′-CTCTGACTTG; assay: Short chain DNA (10 bp) alkylation followed by HPLC; assay type: biochemical; conditions: for alkylation of DNA oligomer: 150 μM agent and DNA, 23° C.
Excerpt: In order to clarify the reactive base site in an alkylation site, the alkylation with Polyamides 12, 13 and 14 was investigated by an HPLC using DNA oligomers 5′-CAAGTCAGAG/5′-CTCTGACTTG as substrates. […] Also by decomposing the oligomers by heating and investigating the degradation products of the oligomers by the method which the inventors reported previously (Tetrahedron Lett. 1990, 31, 7197; Tetrahedron Lett. 1993, 34, 2179 and the like), it was proven that the alkylation reaction occurred at the site indicated by an arrow. […] These findings may be attributable to the difference in the reactivity between the Du and the Du86 similarly to the reactivity on the long chain DNA.
A DNA oligomer synthesized by a DNA synthesizer was employed. To 50 μl in total of 50 mM sodium cacodylate buffer (pH7.0), a standard reaction solution containing 150 μM of the double-stranded DNA fragment, 10% (v/v) DMF and each agent of Compounds 1, 12, 13 and 14 (150 μM) was added in a microcentrifugation tube (Eppendorf) and allowed to stand at 23° C.
The advancement of the reaction was ensured by an HPLC using a *CHEMCOBOND* 5-ODS-H column (4.6×150 mm). The HPLC conditions are shown below.
[Linear gradient of 50 mM ammonium formate: 0-50% acetonitrile (0 to 40 min), flow rate: 1.0 mL/min, 254 nm].

[2] = test system: 39 human cultured cancer cell lines; assay: Cytostatic activity on 39 human cultured cancer cell lines; assay type: cell-based; parameters: mean IC50 values: scale not given here; conditions: for mean IC50 values: mean over 39 human cancer cell lines
Excerpt: The first is the proportional relationship between the DNA-alkylating ability and the cytostatic activity (FIG. 8). For example, the mean IC50 values of ImPyDu (−4.59), ImPyDu86 (−5.95) and ImPyLDu86 (−8.25) were reduced gradually as the DNA-alkylating ability was increased.
A further interesting result was obtained when comparing the fingerprint patterns indicating the cytostatic activity of the hairpin sequence-specific alkylating agents ImPyPy-γ-ImPyLDu 36 (13) and ImPyPy-γ-ImPyPyLDu 36 (14) (FIG. 9). In general, a high correlation coefficient (r=0.75 to 1.0) is known to be obtained when comparing the fingerprint patterns between the drugs whose action mechanisms are analogous to each other, and in fact an extremely high analogy was observed among a DNA intercalator, doxorubicin, daunorubicin and epirubicin. […] The influence on the cytostatic activity attributable only to the difference in the base sequence-recognizing ability in spite of the analogy in the structure as observed with these Compound 13 and 14 has never been reported, and thus is one of the most important findings.

DNA fragment (pUC-I′) = assay: Alkylation of pUC-I′ DNA within a short period (5 minutes, 1 hour, 2 hours), gel electrophoresis; assay type: biochemical
Protocol: In order to investigate the difference in the reactivity between Compounds 1 and 13 in more detail, the alkylation within a short period was analyzed.
as §1, with “(pUC-I′)” for “(pUC-II)”, “2” for “4”, “5 minutes, 1 hour and 2 hours, respectively” for “24 hours”
as §2, with “After each reaction time, a bovine” for “A bovine”

[3] = test system: GFP protein expression coding region; assay: Inhibition of mRNA transcription in GFP coding region with T7 promoter and T7 polymerase; assay type: biochemical; conditions: early stage experiment
Excerpt: The condition of the experiment has not been established yet, and a further detailed analysis of the transcription inhibition mechanism is required. […] It leads to a breakthrough toward the development of a novel knockout gene method.

[4] = test system: DNA fragment of 450 base pairs; conditions: 450 base pair DNA fragment; cited from earlier work
[5] = test system: DNA sequence PyG(A/T) CPu; conditions: cited from earlier work

## AcImImPyPy-γ-ImPyPyLDu86 [Compound 15]
Long chain DNA (pUC-II)
  sequence-specific alkylation of pUC-II DNA: sequence-specific alkylation was observed at 5′-TGACCA-3′

## COC(=O)c1c(C)[nH]c2c1[C@@]13C[C@@H]1CN(C(=O)/C=C/c1cc(NC(=O)c4cc(NC(=O)c5nc(NC(=O)CCCNC(=O)c6cc(NC(=O)c7cc(NC(=O)c8nc(NC(C)=O)cn8C)cn7C)cn6C)cn5C)cn4C)cn1C)C3=CC2=O [Compound 14, AcImPyPy-γ-ImPyPyLCPI]
Long chain DNA (pUC-I′); 24 hours
  sequence-specific alkylation of long chain DNA: slightly reduced reactivity when compared with Compound 13
[1]
  reactivity on the DNA oligomers compared with other compounds: almost equivalent to Compound 1 and poorer than Compound 13
[1]; after 2 hours
  alkylation of DNA oligomer: 46%
Long chain DNA (pUC-II)
  sequence-specific alkylation of pUC-II DNA: sequence-specific alkylation was observed at 5′-TGACCA-3′; also recorded: reactivity is far lower than those of Compounds 15 and 16

## AcImPyPy-γ-ImPyPyCPI [Compound 12]
Long chain DNA (pUC-I′); 24 hours
  sequence-specific alkylation of long chain DNA: not observed
Long chain DNA (pUC-I′); 10 μM
  alkylation of long chain DNA at elevated concentration: no occurrence of the alkylation
[1]
  reactivity on the DNA oligomers compared with other compounds: extremely poorer when compared with Compound 1
[1]; after 17 hours
  alkylation of DNA oligomer: 13%

## PyPyLDu86
[2]
  change of cytostatic activity due to the vinyl linker between polyamide and Du86: dramatic increase in the cytostatic activity

## COC(=O)C1=C(C)CC2=C1[C@@]13C[C@@H]1CN(C(=O)/C=C/c1cc(NC(=O)c4nc(NC(=O)CCCNC(=O)c5cc(NC(=O)c6cc(NC(=O)c7nc(NC(C)=O)cn7C)cn6C)cn5C)cn4C)cn1C)C3=CC2=O [Compound 13, AcImPyPy-γ-ImPyLCPI]
Long chain DNA (pUC-I′); 100 nM (lane 9), 24 hours
  consumption of starting DNA: disappearance of almost all starting DNA
Long chain DNA (pUC-I′); 24 hours
  sequence-specific alkylation of long chain DNA: reacted at A in the GTCAG sequence of the site 3
DNA fragment (pUC-I′); 5 minutes
  alkylation after short reaction time: caused the alkylation
[1]
  reactivity on the DNA oligomers compared with other compounds: dramatically increased reactivity
[1]; after 5 minutes
  alkylation of DNA oligomer: 75%
[3]
  mRNA produced by transcription inhibition due to alkylation of the adenine in the 387 nt position: observed successfully

## PyPyPyLDu86
[2]
  change of cytostatic activity due to the vinyl linker between polyamide and Du86: dramatic increase in the cytostatic activity

## ImPyPyLDu86
[2]
  change of cytostatic activity due to the vinyl linker between polyamide and Du86: dramatic increase in the cytostatic activity

## COC(=O)[C@]1(C)NC2=C(C1=O)[C@@]13C[C@@H]1CN(C(=O)c1cc(NC(=O)c4cc(NC(=O)c5nc(NC(=O)CCCNC(=O)c6cc(NC(=O)c7cc(NC(=O)c8nc(NC(C)=O)cn8C)cn7C)cn6C)cn5C)cn4C)cn1C)C3=CC2=O [Compound 1, ImPyPy-γ-ImPyPyDu]
Long chain DNA (pUC-I′); 24 hours
  sequence-specific alkylation of long chain DNA: reacted selectively at G in the 5′-GTCAG-3′ sequence in Site 3
DNA fragment (pUC-I′); one hour
  alkylation after short reaction time: no reaction
[4]
  reaction efficiency of sequence-specific DNA alkylation: 7%
  time for sequence-specific alkylation of DNA to complete: ≥ 1 week

## ImPyLDu86
[2]
  mean IC50 values: −8.25
[5]
  alkylation induced, share of the compound employed: 70%

## ImPyDu86
[2]
  mean IC50 values: −5.95

## ImPyDu
[2]
  mean IC50 values: −4.59

## COC(=O)c1c(C)[nH]c2c1[C@@]13C[C@@H]1CN(C(=O)/C=C/c1cc(NC(=O)c4cc(NC(=O)c5nc(NC(=O)CCNC(=O)c6cc(NC(=O)c7cc(NC(=O)c8nc(NC(=O)c9nccn9C)cn8C)cn7C)cn6C)cn5C)cn4C)cn1C)C3=CC2=O [Compound 16, H-ImImPyPy-γ-ImPyPyLCPI]
Long chain DNA (pUC-II)
  sequence-specific alkylation of pUC-II DNA: sequence-specific alkylation was observed at 5′-TGACCA-3′
